What was measured:
Experiment in all cases: KHK inhibition assay, recombinant isozyme (coupled pyruvate kinase/LDH, NADH absorbance 340 nm)
Format in all cases: biochemical
Details in all cases: recombinant isozyme 6 nM, fructose 2 mM, ATP 0.1 mM
[1] = biological target: Human recombinant KHK-A (Homo sapiens (Human), UniProt P50053)
Description: (§1) Determination of Human and Rat recombinant KHK-A and KHK-C isozyme IC50 Values
(§2) An assay reagent cocktail was prepared by combining NADH, water, TEA, KCl, MgCl2, PEP, ATP, DTT, coupling enzymes (pyruvate kinase and lactate dehydrogenase, LDH) to final concentrations as shown in Table B.
(§3) To this was added the relevant KHK isozyme to a final concentration of 6 nM. Aliquots of each inhibitor compound were diluted via 5-fold serial dilutions to produce final concentrations ranging from 1000 nM to 0.064 nM. The inhibitor aliquots were added to the assay reagent cocktail containing KHK with fructose (at a concentration of 2 mM) in a 96-well plate. The absorbance at 340 nm was measured via spectrophotometry and inhibition was analyzed using non-linear regression.

[2] = biological target: Human recombinant KHK-C (Homo sapiens (Human), UniProt P50053)
Chain of Human recombinant KHK-C (P50053 whole entry): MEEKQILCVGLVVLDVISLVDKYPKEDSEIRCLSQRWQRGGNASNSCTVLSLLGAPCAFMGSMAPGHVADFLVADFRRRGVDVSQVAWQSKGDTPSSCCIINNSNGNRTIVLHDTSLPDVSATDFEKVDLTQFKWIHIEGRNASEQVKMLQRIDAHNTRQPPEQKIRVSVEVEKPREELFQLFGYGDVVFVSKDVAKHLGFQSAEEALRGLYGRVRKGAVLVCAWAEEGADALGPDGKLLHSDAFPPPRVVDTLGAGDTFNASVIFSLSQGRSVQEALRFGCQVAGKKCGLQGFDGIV
Description: as §1, §2, §3

[3] = biological target: Rat recombinant KHK-A (Rattus norvegicus (Rat), UniProt Q02974)
Chain of Rat recombinant KHK-A (Q02974 other isoform, or with tags, fused parts or gaps): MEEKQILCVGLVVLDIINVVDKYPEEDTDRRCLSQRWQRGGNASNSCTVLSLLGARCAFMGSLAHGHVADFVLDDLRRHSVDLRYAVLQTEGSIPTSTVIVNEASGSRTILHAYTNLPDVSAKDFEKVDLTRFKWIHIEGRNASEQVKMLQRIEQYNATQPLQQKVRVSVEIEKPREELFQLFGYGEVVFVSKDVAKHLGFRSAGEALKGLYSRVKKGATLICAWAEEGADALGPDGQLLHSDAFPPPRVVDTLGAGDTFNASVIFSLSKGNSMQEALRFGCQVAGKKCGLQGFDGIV
Description: as §1, §2, §3

[4] = biological target: Rat recombinant KHK-C (Rattus norvegicus (Rat), UniProt Q02974)
Chain of Rat recombinant KHK-C (Q02974 whole entry): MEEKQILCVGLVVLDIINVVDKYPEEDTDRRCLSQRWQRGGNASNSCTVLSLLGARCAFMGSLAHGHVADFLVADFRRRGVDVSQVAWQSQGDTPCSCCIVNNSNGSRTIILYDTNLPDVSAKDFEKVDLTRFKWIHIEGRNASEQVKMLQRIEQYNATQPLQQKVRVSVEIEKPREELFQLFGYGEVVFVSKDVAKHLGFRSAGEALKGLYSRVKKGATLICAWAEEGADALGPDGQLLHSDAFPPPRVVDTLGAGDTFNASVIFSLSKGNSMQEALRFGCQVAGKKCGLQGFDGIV
Description: as §1, §2, §3

Chain of Human recombinant KHK-A (P50053 other isoform, or with tags, fused parts or gaps): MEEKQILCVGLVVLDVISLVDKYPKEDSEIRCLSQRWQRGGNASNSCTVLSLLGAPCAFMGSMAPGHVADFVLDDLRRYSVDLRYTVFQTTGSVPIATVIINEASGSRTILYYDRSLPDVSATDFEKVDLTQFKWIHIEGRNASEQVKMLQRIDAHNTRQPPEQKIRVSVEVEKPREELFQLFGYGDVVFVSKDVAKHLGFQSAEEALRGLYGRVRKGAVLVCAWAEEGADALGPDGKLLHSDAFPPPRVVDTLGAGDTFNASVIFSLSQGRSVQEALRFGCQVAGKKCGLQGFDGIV

SMILES: CN1CC(n2cc(-c3cc(C(F)(F)F)nc(N4C[C@@H](O)[C@@H]4C(F)(F)F)n3)cn2)C1 (racemic) [Compound A25, (2R,3R)-1-{4-[1-(1-methyl-3-azetidinyl)-4-pyrazolyl]-6-(trifluoromethyl)-2-pyrimidinyl}-2-(trifluoromethyl)-3-azetidinol]
- IC50 [1]: 2.2 nM
- IC50 [2]: 5.22 nM
- IC50 [3]: 5.7 nM
- IC50 [4]: 15 nM

SMILES: O[C@@H]1CN(c2nc(-c3cnn(C4CNC4)c3)cc(C(F)(F)F)n2)[C@H]1C(F)(F)F (racemic) [Compound A31, (2R,3R)-1-{4-[1-(3-azetidinyl)-4-pyrazolyl]-6-(trifluoromethyl)-2-pyrimidinyl}-2-(trifluoromethyl)-3-azetidinol]
- IC50 [2]: 16.8 nM

SMILES: C[C@H]1CCN1c1nc(-c2cnn(CC(=O)N3CCNCC3)c2)c(Cl)c(C(F)(F)F)n1 [Compound A4, 2-(4-{2-[(S)-2-methyl-1-azetidinyl]-5-chloro-6-(trifluoromethyl)-4-pyrimidinyl}-1-pyrazolyl)-1-(1-piperazinyl)-1-ethanone]
- IC50 [1]: 1.8 nM
- IC50 [2]: 5.94 nM
- IC50 [3]: 1.3 nM
- IC50 [4]: 4.9 nM

SMILES: COc1c(-c2cnn(CC(=O)N3CCNCC3)c2)nc(N2CC[C@@H]2C)nc1C(F)(F)F [Compound A5, 2-(4-{2-[(S)-2-methyl-1-azetidinyl]-5-methoxy-6-(trifluoromethyl)-4-pyrimidinyl}-1-pyrazolyl)-1-(1-piperazinyl)-1-ethanone]
- IC50 [1]: 69 nM
- IC50 [2]: 30.6 nM
- IC50 [3]: 26 nM
- IC50 [4]: 44 nM

SMILES: COc1c(-c2cnn(C3CN(C)C3)c2)nc(N2C[C@@H](O)[C@@H]2C)nc1C(F)(F)F [Compound A8, (2S,3R)-1-{5-methoxy-4-[1-(1-methyl-3-azetidinyl)-4-pyrazolyl]-6-(trifluoromethyl)-2-pyrimidinyl}-2-methyl-3-azetidinol]
- IC50 [1]: 7.8 nM
- IC50 [2]: 6.46 nM
- IC50 [3]: 5.5 nM
- IC50 [4]: 16 nM

SMILES: C[C@H]1[C@H](O)CN1c1nc(-c2cnn(C3CN(C)C3)c2)c(Cl)c(C(F)(F)F)n1 [Compound A10, (2S,3R)-1-{5-chloro-4-[1-(1-methyl-3-azetidinyl)-4-pyrazolyl]-6-(trifluoromethyl)-2-pyrimidinyl}-2-methyl-3-azetidinol]
- IC50 [1]: 0.2 nM
- IC50 [2]: 0.856 nM
- IC50 [3]: 0.2 nM
- IC50 [4]: 1.1 nM

SMILES: O=C(Cn1cc(-c2nc(N3CC[C@@H]3C(F)F)nc(C(F)F)c2C2CC2)cn1)N1CCNCC1 [Compound A13, 2-(4-{2-[(R)-2-(difluoromethyl)-1-azetidinyl]-5-cyclopropyl-6-(difluoromethyl)-4-pyrimidinyl}-1-pyrazolyl)-1-(1-piperazinyl)-1-ethanone]
- IC50 [2]: 41.1 nM

SMILES: O=C(Cn1cc(-c2cc(C(F)F)nc(N3CC[C@@H]3C(F)F)n2)cn1)N1CCNCC1 [Compound A14, 2-(4-{2-[(R)-2-(difluoromethyl)-1-azetidinyl]-6-(difluoromethyl)-4-pyrimidinyl}-1-pyrazolyl)-1-(1-piperazinyl)-1-ethanone]
- IC50 [2]: 318 nM

SMILES: COc1c(-c2cnn(CC(=O)N3CCNCC3)c2)nc(N2CC[C@@H]2C(F)(F)F)nc1C(F)F [Compound A15, 2-(4-{2-[(R)-2-(trifluoromethyl)-1-azetidinyl]-6-(difluoromethyl)-5-methoxy-4-pyrimidinyl}-1-pyrazolyl)-1-(1-piperazinyl)-1-ethanone]
- IC50 [2]: 32.7 nM

SMILES: O=C(Cn1cc(-c2nc(N3CC[C@@H]3C(F)F)nc(C(F)(F)F)c2F)cn1)N1CCNCC1 [Compound A16, 2-(4-{2-[(R)-2-(difluoromethyl)-1-azetidinyl]-5-fluoro-6-(trifluoromethyl)-4-pyrimidinyl}-1-pyrazolyl)-1-(1-piperazinyl)-1-ethanone]
- IC50 [2]: 47.8 nM

SMILES: O=C(Cn1cc(-c2nc(N3CC[C@@H]3C(F)F)nc(C(F)(F)F)c2C2CC2)cn1)N1CCNCC1 [Compound A17, 2-(4-{2-[(R)-2-(difluoromethyl)-1-azetidinyl]-5-cyclopropyl-6-(trifluoromethyl)-4-pyrimidinyl}-1-pyrazolyl)-1-(1-piperazinyl)-1-ethanone]
- IC50 [2]: 74.9 nM

SMILES: O=C(Cn1cc(-c2cc(C(F)F)nc(N3CC[C@@H]3C(F)(F)F)n2)cn1)N1CCNCC1 [Compound A20, 2-(4-{2-[(R)-2-(trifluoromethyl)-1-azetidinyl]-6-(difluoromethyl)-4-pyrimidinyl}-1-pyrazolyl)-1-(1-piperazinyl)-1-ethanone]
- IC50 [2]: 133 nM

SMILES: C[C@H]1CCN1c1nc(-c2cnn(CC(=O)N3CCNCC3)c2)c(F)c(C(F)F)n1 [Compound A22, 2-(4-{2-[(S)-2-methyl-1-azetidinyl]-6-(difluoromethyl)-5-fluoro-4-pyrimidinyl}-1-pyrazolyl)-1-(1-piperazinyl)-1-ethanone]
- IC50 [2]: 65.8 nM

SMILES: COc1c(-c2cnn(CC(=O)N3CCNCC3)c2)nc(N2CC[C@@H]2C)nc1C(F)F [Compound A23, 2-(4-{2-[(S)-2-methyl-1-azetidinyl]-6-(difluoromethyl)-5-methoxy-4-pyrimidinyl}-1-pyrazolyl)-1-(1-piperazinyl)-1-ethanone]
- IC50 [2]: 54.6 nM

SMILES: CCc1c(-c2cnn(CC(=O)N3CCNCC3)c2)nc(N2CC[C@@H]2C)nc1C(F)F [Compound A26, 2-(4-{2-[(S)-2-methyl-1-azetidinyl]-6-(difluoromethyl)-5-ethyl-4-pyrimidinyl}-1-pyrazolyl)-1-(1-piperazinyl)-1-ethanone]
- IC50 [1]: 13 nM
- IC50 [2]: 32.9 nM
- IC50 [3]: 5.2 nM
- IC50 [4]: 26 nM

SMILES: COc1c(-c2cnn(CC(=O)N3CCNCC3)c2)nc(N2CC[C@@H]2C(F)(F)F)nc1C(F)(F)F [Compound A28, 2-(4-{2-[(R)-2-(trifluoromethyl)-1-azetidinyl]-5-methoxy-6-(trifluoromethyl)-4-pyrimidinyl}-1-pyrazolyl)-1-(1-piperazinyl)-1-ethanone]
- IC50 [1]: 15 nM
- IC50 [2]: 18 nM
- IC50 [3]: 4.1 nM
- IC50 [4]: 20 nM

SMILES: O=C(Cn1cc(-c2nc(N3CC[C@@H]3C(F)(F)F)nc(C(F)(F)F)c2Cl)cn1)N1CCNCC1 [Compound A29, 2-(4-{2-[(R)-2-(trifluoromethyl)-1-azetidinyl]-5-chloro-6-(trifluoromethyl)-4-pyrimidinyl}-1-pyrazolyl)-1-(1-piperazinyl)-1-ethanone]
- IC50 [2]: 5.03 nM

SMILES: C[C@H]1CCN1c1nc(-c2cnn(CC(=O)N3CCNCC3)c2)c(C2CC2)c(C(F)(F)F)n1 [Compound A30, 2-(4-{2-[(S)-2-methyl-1-azetidinyl]-5-cyclopropyl-6-(trifluoromethyl)-4-pyrimidinyl}-1-pyrazolyl)-1-(1-piperazinyl)-1-ethanone]
- IC50 [2]: 41.3 nM

SMILES: C[C@H]1CCN1c1nc(-c2cnn(CC(=O)N3CCNCC3)c2)c(F)c(C(F)(F)F)n1 [Compound A32, 2-(4-{2-[(S)-2-methyl-1-azetidinyl]-5-fluoro-6-(trifluoromethyl)-4-pyrimidinyl}-1-pyrazolyl)-1-(1-piperazinyl)-1-ethanone]
- IC50 [1]: 12 nM
- IC50 [2]: 23.2 nM
- IC50 [3]: 8.2 nM
- IC50 [4]: 20 nM

SMILES: C[C@H]1[C@H](O)CN1c1nc(-c2cnn(C3CN(C)C3)c2)c(C2CC2)c(C(F)(F)F)n1 [Compound A34, (2S,3R)-1-{5-cyclopropyl-4-[1-(1-methyl-3-azetidinyl)-4-pyrazolyl]-6-(trifluoromethyl)-2-pyrimidinyl}-2-methyl-3-azetidinol]
- IC50 [2]: 25.4 nM

SMILES: COc1c(-c2cnn(CC(=O)N3CCNCC3)c2)nc(N2CC[C@@H]2C(F)F)nc1C(F)(F)F [Compound A36, 2-(4-{2-[(R)-2-(difluoromethyl)-1-azetidinyl]-5-methoxy-6-(trifluoromethyl)-4-pyrimidinyl}-1-pyrazolyl)-1-(1-piperazinyl)-1-ethanone]
- IC50 [2]: 36.6 nM

SMILES: O=C(Cn1cc(-c2nc(N3CC[C@@H]3C(F)F)nc(C(F)F)c2Cl)cn1)N1CCNCC1 [Compound A37, 2-(4-{2-[(R)-2-(difluoromethyl)-1-azetidinyl]-5-chloro-6-(difluoromethyl)-4-pyrimidinyl}-1-pyrazolyl)-1-(1-piperazinyl)-1-ethanone]
- IC50 [2]: 11.9 nM

SMILES: O=C(Cn1cc(-c2nc(N3CC[C@@H]3C(F)F)nc(C(F)F)c2F)cn1)N1CCNCC1 [Compound A39, 2-(4-{2-[(R)-2-(difluoromethyl)-1-azetidinyl]-6-(difluoromethyl)-5-fluoro-4-pyrimidinyl}-1-pyrazolyl)-1-(1-piperazinyl)-1-ethanone]
- IC50 [2]: 110 nM

SMILES: CCc1c(-c2cnn(CC(=O)N3CCNCC3)c2)nc(N2CC[C@@H]2C(F)F)nc1C(F)F [Compound A40, 2-(4-{2-[(R)-2-(difluoromethyl)-1-azetidinyl]-6-(difluoromethyl)-5-ethyl-4-pyrimidinyl}-1-pyrazolyl)-1-(1-piperazinyl)-1-ethanone]
- IC50 [2]: 33.2 nM

SMILES: CCc1c(-c2cnn(CC(=O)N3CCNCC3)c2)nc(N2CC[C@@H]2C(F)F)nc1C(F)(F)F [Compound A41, 2-(4-{2-[(R)-2-(difluoromethyl)-1-azetidinyl]-5-ethyl-6-(trifluoromethyl)-4-pyrimidinyl}-1-pyrazolyl)-1-(1-piperazinyl)-1-ethanone]
- IC50 [2]: 17.1 nM

SMILES: COc1c(-c2cnn(CC(=O)N3CCNCC3)c2)nc(N2CC[C@@H]2C(F)F)nc1C(F)F [Compound A44, 2-(4-{2-[(R)-2-(difluoromethyl)-1-azetidinyl]-6-(difluoromethyl)-5-methoxy-4-pyrimidinyl}-1-pyrazolyl)-1-(1-piperazinyl)-1-ethanone]
- IC50 [2]: 61 nM
